Broadly, the Ki is the dissociation constant of the complex between target and ligand, obtained from inhibition or displacement. In general, pA2 refers to the negative logarithm of the molar antagonist concentration that doubles the agonist concentration needed for the same response. The low end stands for lower antagonist potency, the high end for higher antagonist potency. The term ED50 denotes the midpoint of the dose-response relation. Higher therefore signals a need for a large dose.

The structures appear in SMILES notation. Where only a bound is given, the exact number is not on record here.

Data on 11 molecules can be found in ChEMBL document CHEMBL1122727, “Adrenoceptor and tetrabenazine antagonism activities of some pyridinyltetrahydropyridines” (J Med Chem, 1984).

Test [1] in a line: Relative binding to alpha-1a and alpha-2 adrenergic receptors (ratio of Ki-prazosin and Ki-clonidine).
Test [2] can be described thus: Selectivity ratio expressed as the ratio of -log methoxamine pA2 to -log clonidine pA2.
A short description of test [3]: Displacement of [3H]clonidine from calf cerebral cortex alpha-2 adrenergic receptor. It is filed as tissue-based, Bos taurus. A general note: Loss of bound radioactivity is the signal in a displacement assay; it reports binding, not function.
Test [4] has as its target T1, Alpha-1A adrenergic receptor (Bos taurus, UniProt P18130).
T1 sequence (P18130 whole entry): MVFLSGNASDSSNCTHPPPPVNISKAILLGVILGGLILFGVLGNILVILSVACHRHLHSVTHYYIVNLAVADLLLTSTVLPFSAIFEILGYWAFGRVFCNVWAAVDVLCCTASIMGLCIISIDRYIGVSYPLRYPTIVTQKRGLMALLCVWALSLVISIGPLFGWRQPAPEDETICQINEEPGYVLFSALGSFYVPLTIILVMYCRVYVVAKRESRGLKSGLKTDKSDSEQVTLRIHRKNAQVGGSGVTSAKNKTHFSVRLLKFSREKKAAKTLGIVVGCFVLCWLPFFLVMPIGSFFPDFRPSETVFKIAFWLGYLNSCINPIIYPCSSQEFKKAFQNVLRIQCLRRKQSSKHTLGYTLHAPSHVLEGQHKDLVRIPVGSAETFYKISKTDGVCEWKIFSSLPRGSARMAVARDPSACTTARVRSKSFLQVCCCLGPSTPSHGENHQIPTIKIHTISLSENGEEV
Briefly: Displacement of [3H]prazosin from calf cerebral cortex alpha-1 adrenergic receptor. The test is classed as tissue-based.

In test [5] the target is T2, Adrenergic receptor alpha-2 (Rattus norvegicus, UniProt P22086+P19328+P22909).
T2 sequence (P22086 whole entry): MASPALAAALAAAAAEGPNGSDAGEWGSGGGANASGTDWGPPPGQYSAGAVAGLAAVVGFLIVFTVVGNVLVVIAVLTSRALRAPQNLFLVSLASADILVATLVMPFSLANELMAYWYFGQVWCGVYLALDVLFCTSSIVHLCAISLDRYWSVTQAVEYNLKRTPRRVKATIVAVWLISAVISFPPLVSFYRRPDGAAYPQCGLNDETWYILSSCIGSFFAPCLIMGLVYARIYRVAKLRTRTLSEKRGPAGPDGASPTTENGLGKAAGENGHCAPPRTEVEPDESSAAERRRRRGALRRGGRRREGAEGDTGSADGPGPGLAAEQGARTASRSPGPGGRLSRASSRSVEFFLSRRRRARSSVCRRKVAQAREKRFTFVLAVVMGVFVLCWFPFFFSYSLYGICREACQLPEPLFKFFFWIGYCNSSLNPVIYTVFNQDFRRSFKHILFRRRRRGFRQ
T2 sequence (P19328 whole entry): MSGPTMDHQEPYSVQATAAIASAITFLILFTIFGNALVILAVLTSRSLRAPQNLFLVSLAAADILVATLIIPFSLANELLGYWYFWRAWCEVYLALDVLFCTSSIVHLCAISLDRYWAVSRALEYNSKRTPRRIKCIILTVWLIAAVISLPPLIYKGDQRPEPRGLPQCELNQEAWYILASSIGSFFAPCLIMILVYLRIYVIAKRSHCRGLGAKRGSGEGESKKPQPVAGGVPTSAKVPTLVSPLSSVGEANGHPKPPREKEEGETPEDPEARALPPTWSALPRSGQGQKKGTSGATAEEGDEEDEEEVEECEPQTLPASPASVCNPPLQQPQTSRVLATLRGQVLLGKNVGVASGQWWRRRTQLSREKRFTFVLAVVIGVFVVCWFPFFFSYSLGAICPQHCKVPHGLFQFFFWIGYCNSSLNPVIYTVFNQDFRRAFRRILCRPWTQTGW
T2 sequence (P22909 whole entry): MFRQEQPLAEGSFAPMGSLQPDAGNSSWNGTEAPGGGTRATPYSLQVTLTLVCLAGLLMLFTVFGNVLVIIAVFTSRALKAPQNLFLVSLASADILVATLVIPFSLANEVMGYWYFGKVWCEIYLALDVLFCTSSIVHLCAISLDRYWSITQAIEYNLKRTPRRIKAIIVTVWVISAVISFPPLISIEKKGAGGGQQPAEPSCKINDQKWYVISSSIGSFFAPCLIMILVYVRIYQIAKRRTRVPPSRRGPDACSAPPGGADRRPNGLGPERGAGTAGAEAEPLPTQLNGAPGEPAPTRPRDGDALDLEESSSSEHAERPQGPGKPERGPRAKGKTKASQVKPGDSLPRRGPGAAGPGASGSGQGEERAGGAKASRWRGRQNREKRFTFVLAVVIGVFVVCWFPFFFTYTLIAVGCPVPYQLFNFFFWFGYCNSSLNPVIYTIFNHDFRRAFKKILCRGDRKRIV
Briefly: Antagonistic activity against clonidine-stimulated rat vas deferens presynaptic alpha-2 adrenergic receptor. It is filed as functional, tissue-based.

For test [6], the system named is Mus musculus. Briefly: Compound was evaluated for its antagonistic effect on the Tetrabenazine-induced ptosis following intravenous administration. The test is classed as functional.
For test [7], the target named is T3, Adrenergic receptor alpha-1 (Rattus norvegicus, UniProt P15823+P23944+P43140).
T3 sequence (P15823 whole entry): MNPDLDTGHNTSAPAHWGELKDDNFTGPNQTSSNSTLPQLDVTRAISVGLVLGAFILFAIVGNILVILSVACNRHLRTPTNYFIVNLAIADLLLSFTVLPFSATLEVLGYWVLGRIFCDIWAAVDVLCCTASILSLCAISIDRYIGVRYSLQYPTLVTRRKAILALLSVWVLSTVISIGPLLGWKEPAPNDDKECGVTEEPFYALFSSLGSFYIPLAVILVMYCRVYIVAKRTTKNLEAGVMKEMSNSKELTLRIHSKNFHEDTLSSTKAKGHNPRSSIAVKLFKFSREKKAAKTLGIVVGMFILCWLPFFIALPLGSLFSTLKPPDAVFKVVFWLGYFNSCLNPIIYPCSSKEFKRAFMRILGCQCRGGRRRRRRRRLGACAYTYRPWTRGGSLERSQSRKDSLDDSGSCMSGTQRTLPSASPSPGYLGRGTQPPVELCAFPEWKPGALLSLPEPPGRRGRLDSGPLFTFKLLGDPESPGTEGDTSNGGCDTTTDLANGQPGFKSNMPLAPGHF
T3 sequence (P23944 whole entry): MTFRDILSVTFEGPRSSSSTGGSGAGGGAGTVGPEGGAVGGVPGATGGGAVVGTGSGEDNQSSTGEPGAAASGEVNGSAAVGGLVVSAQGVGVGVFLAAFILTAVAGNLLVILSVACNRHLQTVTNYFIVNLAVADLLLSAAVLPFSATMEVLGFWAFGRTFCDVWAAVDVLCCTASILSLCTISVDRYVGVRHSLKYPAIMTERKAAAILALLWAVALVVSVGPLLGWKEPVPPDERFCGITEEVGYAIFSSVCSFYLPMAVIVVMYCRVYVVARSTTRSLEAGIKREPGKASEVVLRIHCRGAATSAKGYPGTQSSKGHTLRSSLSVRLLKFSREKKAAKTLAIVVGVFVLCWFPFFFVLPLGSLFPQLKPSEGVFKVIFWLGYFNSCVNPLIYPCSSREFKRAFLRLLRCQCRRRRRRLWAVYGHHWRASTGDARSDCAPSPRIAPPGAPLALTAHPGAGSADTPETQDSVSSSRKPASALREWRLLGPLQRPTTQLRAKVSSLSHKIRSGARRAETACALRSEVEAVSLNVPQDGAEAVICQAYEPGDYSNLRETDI
T3 sequence (P43140 whole entry): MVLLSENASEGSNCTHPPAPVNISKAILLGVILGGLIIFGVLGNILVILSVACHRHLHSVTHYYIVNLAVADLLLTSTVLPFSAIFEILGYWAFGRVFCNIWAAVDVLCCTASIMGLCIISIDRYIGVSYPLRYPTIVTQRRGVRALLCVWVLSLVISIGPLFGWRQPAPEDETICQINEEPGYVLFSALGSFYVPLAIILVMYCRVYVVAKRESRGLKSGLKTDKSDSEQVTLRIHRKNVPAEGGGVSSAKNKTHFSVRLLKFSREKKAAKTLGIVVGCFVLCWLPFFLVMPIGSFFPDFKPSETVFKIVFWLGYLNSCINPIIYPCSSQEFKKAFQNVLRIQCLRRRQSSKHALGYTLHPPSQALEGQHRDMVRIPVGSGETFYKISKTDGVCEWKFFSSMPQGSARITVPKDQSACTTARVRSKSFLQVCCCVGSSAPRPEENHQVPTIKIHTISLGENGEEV
Briefly: Antagonistic activity upon postsynaptic alpha-1 adrenergic receptor was determined in the rat isolated, field stimulated vas deferens using methoxamine. The test is classed as functional, tissue-based.

Consider `CN1CCN(c2ncccc2F)CC1`, for which the results for the Selectivity ratio in test [1] and in test [2] were 98 and 16, respectively. The Ki in test [3] was determined as 5 nM.

For `CN1CC=C(c2ncccc2Cl)CC1`, the Selectivity ratio in test [1] is 31. Further, the Ki in test [4] was 2260 nM; in test [3] it was 72 nM. The same molecule showed a pA2 in test [5] of less than 5.9.

For the molecule `Cc1cccnc1C1=CCN(C)CC1`, in test [1], the Selectivity ratio is 15. For the same molecule, the Ki in test [4] stood at 2500 nM; in test [3], 170 nM. Besides, the pA2 in test [5] was less than 5.8.

In the case of `CNCCCN1c2ccccc2CCc2ccccc21` [DESIPRAMINE], in test [6], the ED50 came to 0.07 mg/kg.

Regarding `CN1CC=C(c2ccccn2)CC1`, the figures for the Selectivity ratio in test [1] and in test [2] were 44 and 6, respectively. Moreover, the results for the Ki in test [4] and in test [3] were 2500 nM and 57 nM, respectively. Besides, the pA2 in test [5] was 6.2; in test [7] it was 5.4. This molecule returned an ED50 in test [6] of 0.5 mg/kg.

In the case of `CN1CC=C(c2ccncc2F)CC1`, the Selectivity ratio in test [1] was 11. The Ki was found to be 7700 nM in test [4] and 720 nM in test [3]. In addition, the pA2 in test [5] is on record as less than 5.8.

For `CN1CC=C(c2ncccc2F)CC1`, the Selectivity ratio in test [1] came to 150; in test [2], 32. The Ki in test [4] was determined as 3300 nM; in test [3] it was 22 nM. Besides, the pA2 in test [5] is given as 6.8; in test [7], 5.3. Also, it took a dose of 0.35 mg/kg to reach the 50% effect level in test [6] (ED50).

As for `CN1CC=C(c2cccnc2)CC1`, in test [1], the Selectivity ratio is 6.4. The Ki in test [4] is 4800 nM; in test [3] it was 750 nM. In test [5], this molecule yielded a pA2 of less than 5.8.

Turning to `c1ccc(N2CCNCC2)nc1`, the figures for the Selectivity ratio in test [1] and in test [2] were 65 and 5, respectively. This molecule showed a Ki in test [3] of 37 nM.

On to `C1=C(c2ccccn2)CCNC1`, for which the Selectivity ratio in test [1] came out at 28. Besides, the Ki in test [4] was determined as 4000 nM; in test [3], 144 nM. The pA2 in test [5] is on record as less than 5.7.

Consider `CN1CCC(c2ccccn2)CC1`, for which, in test [1], the Selectivity ratio worked out at 6. For the same molecule, the Ki in test [4] stood at 2500 nM; in test [3] it was 420 nM. In test [5], this molecule displayed a pA2 of less than 5.8.
